# Tests used:
# [1] = system: ORP150; assay: Western-blot assay of ORP150 in HepG2 cells; type: cell-based, Human; details: 2 μm PDX, 24 hours, FIG. 3A
# Protocol: After collecting HepG2 cells, protein was extracted from the cells with a buffer (PRO-PREF; Intron Biotechnology, Seoul, Korea) at 4° C. for 1 hour. A protein sample (35 μg) was applied to 12% SDS-PAGE, transferred to a nitrocellulose film (Amersham Bioscience, Westborough, Mass., USA), detected with a primary antibody, followed by probing with a secondary antibody and another secondary antibody conjugated with horseradish […] (Santa Cruz Biotechnology). The sample was detected by ECL kit. Under 70% comfluency, 0 to 20 nmol/L […] (si)RNA oligonucleotide to ORP150 purchased from Santa Cruz Biotechnology was transfected to inhibit gene expression. Scramble siRNA was used as a control group. 2 or 4 μg of pCMV3-ORP150 (Sino Biological, Beijing, China) was transiently transfected, leading to over-expression of ORP150. pCMV3 empty-vector was used as a control group. According to instruction of the manufacturer, transfection was executed using lipofectamine 2000 (Invitrogen). The present inventors have executed western-blot assay of ORP150 in HepG2 cells transfected with scramble siRNA or siFOXO1 in the presence of 2 μm of PDX for 24 hours.
# [2] = system: SREBP1, FAS and SCD1; assay: Western-blot assay of adipogenesis-related genes in palmitate-treated HepG2 cells; type: cell-based, Human
# Protocol: Human liver cells, that is, HepG2 cells (ATCC, Manassas, Va., USA) were cultured in high-glucose Dulbecco's modified eagle medium (DMEM, Invitrogen, Carlsbad, Calif., USA), which includes 10% fetal bovine serum (FBS, Invitrogen), 100 units/mL of penicillin and 100 μg/ml of streptomycin. The cells were incubated at 37° C. under a condition of 5% CO2.
# Mycoplasma was not detected in HepG2 cells. PDX (Cayman Chemical, Ann Arbor, Mich., USA) was dissolved in ethanol. Sodium palmitate (Sigma, St. Louis, Mo., USA) was mixed with 2% BSA (fatty acid free level; Sigma) in DMEM. […] In all experiments, the cells were treated with palmitate-BSA and PDX for 24 hours, while 2% BSA-ethanol was used as a control group.
# After collecting HepG2 cells, protein was extracted from the cells with a buffer (PRO-PREF; Intron Biotechnology, Seoul, Korea) at 4° C. for 1 hour. A protein sample (35 μg) was applied to 12% SDS-PAGE, transferred to a nitrocellulose film (Amersham Bioscience, Westborough, Mass., USA), detected with a primary antibody, followed by probing with a secondary antibody and another secondary antibody conjugated with horseradish […] (Santa Cruz Biotechnology). The sample was detected by ECL kit.
# Under 70% comfluency, 0 to 20 nmol/L […] (si)RNA oligonucleotide to ORP150 purchased from Santa Cruz Biotechnology was transfected to inhibit gene expression. Scramble siRNA was used as a control group. 2 or 4 μg of pCMV3-ORP150 (Sino Biological, Beijing, China) was transiently transfected, leading to over-expression of ORP150. pCMV3 empty-vector was used as a control group. According to instruction of the manufacturer, transfection was executed using lipofectamine 2000 (Invitrogen).
# The present inventors have executed western-blot assay of SREBP1 expression in HepG2 cells that were treated with 200 μM palmitate and/or with 0 to 4 μg of ORP150 for 24 hours.
# [3] = system: influenza virus; details: through RNA export system; reported; cited from earlier work
smiles,measurement,setting,value
"CC/C=C\C[C@H](O)/C=C/C=C\C=C\[C@@H](O)C/C=C\C/C=C\CCC(=O)O [PDX, 10S,17S-dihydroxy-docosa-4Z,7Z,11E,13Z,15E,19Z-hexaeonic acid]",PDX effects of promoting ORP150 expression,[1]; HepG2 cells transfected with FOXO1 siRNA,inhibited
same,ORP150 expression level,"[1]; HepG2 cells, scramble siRNA",increased
same,"expression of adipogenesis-related genes including SREBP1, FAS and SCD1","[2]; 24 hours, FIG. 1B",inhibited
same,"expression of adipogenesis-related genes SREBP1, FAS and SCD1","[2]; scramble siRNA, PDX administration, FIG. 2C",inhibited
same,PDX effects of inhibiting the expression of adipogenesis-related genes,"[2]; silencing ORP150, FIG. 2C",significantly reduced
same,replication of influenza virus,[3],inhibits

# Reference: patent publication US20190070140A1, “COMPOSITION COMPRISING PROTECTIN DX AS ACTIVE INGREDIENT FOR PREVENTING OR TREATING HYPERLIPIDEMIA OR FATTY LIVER DISEASE” (Solvit P&F, priority 2017, published 2019)
